Read-outs that look alike come from different tables or passages of the source.
Tests used:
[1] = system: prostate (PC-3); details: previous work; cited from earlier work
[2] = system: ovarian (OVCAR-03); details: previous work; cited from earlier work
[3] = system: glioma (U251); assay: Cytotoxic assay (sulforhodamine B), glioma; assay type: cell-based, human; details: for IC50: Homo sapiens, U-251, 48 h, sulforhodamine B assay
Procedure: (§1) The synthesized compounds were evaluated in vitro against six human cancer cell lines consisting of glioma (U251), melanoma (UACC-62), breast (MCF-7), prostate (PC-3), ovarian (OVCAR-03) and colon (HT-29). Cell lines were obtained from National Cancer Institute (Frederick, MD, USA). Normal cell line (VERO, renal, green monkey), from the Rio de Janeiro Cell Bank, was also used. Stock cultures were grown in medium containing 5 mL RPMI 1640 (GIBCO BRL) supplemented with 5% fetal bovine serum (FBS, GIBCO), at 37 °C with 5% CO2. Penicillin:streptomycin (1000 μg/L:1000 U/L, 1 mL/L) was added to the experimental cultures. Cells in 96-well plates (100 μL cells well^−1) were exposed to compounds 8–11 in DMSO (concentrations of 0.25, 2.5, 25, and 250 μg·mL^−1) at 37 °C, 5% of CO2 in air for 48 h. […] Afterwards cells were fixed with 50% trichloroacetic acid and cell proliferation determined by spectrophotometric quantification (540 nm) of cellular protein content by using sulforhodamine B assay and doxorubicin as the positive control. Three measurements were obtained: at time zero (To, at the beginning of incubation) and 48 h post-incubation for compound-free (C) and tested (T) cells. Cell proliferation was determined according to the equation 100 × [(T − T0)/C − T0], for T0 < T ≤ C, and 100 × [(T − T0)/T0], for T ≤ T0 and a concentration-response curve for each cell line was plotted using software ORIGIN 8.0® (OriginLab Corporation). Using the concentration–response curve for each cell line, the IC50 values (concentration that produces a 50% reduction in cellular growth when compared to untreated control cells) and IC100 values (concentration that promotes total growth inhibition) were determined through non-linear regression analysis using software ORIGIN 8.0® (OriginLab Corporation). Compounds with IC50 values < 100 μM were considered actives.

[4] = system: melanoma (UACC-62); assay: Cytotoxic assay (sulforhodamine B), melanoma; assay type: cell-based, human; details: for IC50: Homo sapiens, UACC-62, 48 h, sulforhodamine B assay
Procedure: as §1

[5] = system: breast (MCF-7); assay: Cytotoxic assay (sulforhodamine B), breast; assay type: cell-based; details: Homo sapiens, MCF7, 48 h
Procedure: as §1

[6] = system: prostate (PC-3); assay: Cytotoxic assay (sulforhodamine B), prostate; assay type: cell-based, human; details: for IC50: Homo sapiens, 48 h, sulforhodamine B assay
Procedure: as §1

[7] = system: ovarian (OVCAR-03); assay: Cytotoxic assay (sulforhodamine B), ovarian; assay type: cell-based, human; details: for IC50: Homo sapiens, 48 h, sulforhodamine B assay
Procedure: as §1

[8] = system: colon (HT-29); assay: Cytotoxic assay (sulforhodamine B), colon; assay type: cell-based; details: Homo sapiens, 48 h
Procedure: as §1

[9] = system: Normal cell line (VERO, renal, green monkey); assay: Cytotoxic assay (sulforhodamine B), normal cell line; assay type: cell-based; details: Chlorocebus sabaeus, 48 h
Procedure: as §1

| SMILES | IC50 [1] [µM] | IC50 [2] [µM] | IC50 [3] [µM] | IC50 [4] [µM] | IC50 [5] [µM] | IC50 [6] [µM] | IC50 [7] [µM] | IC50 [8] [µM] | IC50 [9] [µM] | IC100 (concentration that promotes total growth inhibition) ([3]; glioma (U251), cytostatic activity) [µM] | IC100 (concentration that promotes total growth inhibition) ([4]; melanoma (UACC-62), cytostatic activity) [µM] | IC100 (concentration that promotes total growth inhibition) ([6]; prostate (PC-3), cytostatic activity) [µM] | IC100 (concentration that promotes total growth inhibition) ([7]; ovarian (OVCAR-03), cytostatic activity) [µM] |
| --- | --- | --- | --- | --- | --- | --- | --- | --- | --- | --- | --- | --- | --- |
| O=C(NN=Cc1ccccc1Cl)c1cc2c([nH]c3ccccc32)c(-c2ccc(O)cc2)n1 [N'-(2-chlorobenzylidene)-1-(4-hydroxyphenyl)-β-carboline-3-carbohydrazide] | 1.83 | 1.65 |  |  |  |  |  |  |  |  |  |  |  |
| COc1ccc(-c2nc(-c3nnc(SC)o3)cc3c2[nH]c2ccccc23)cc1 [1-(4-methoxyphenyl)-3-(2-methylthio-1,3,4-oxadiazol-5-yl) β-carboline] |  | 2.13 |  |  |  |  |  |  |  |  |  |  |  |
| COc1ccc(-c2nc(C3=NC(=Cc4cccc([N+](=O)[O-])c4)C(=O)O3)cc3c2[nH]c2ccccc23)cc1 [Compound 10, 2-[1-(4-Methoxyphenyl)-9H-β-carbolin-3-yl]-4-(3-nitrobenzylidene)-4H-oxazol-5-one] |  |  | 0.35 | 15.9 | 47.6 | 5.28 | 2.18 | > 100 | > 100 |  |  |  |  |
| COc1cccc2c1C(=O)c1c(O)c3c(c(O)c1C2=O)C[C@@](O)(C(=O)CO)C[C@@H]3O[C@H]1C[C@H](N)[C@H](O)[C@H](C)O1 [Doxorubicin, reference compound] |  |  | 0.03 | 0.04 | 0.06 | 0.05 | 0.42 | 0.18 | 0.5 |  |  |  |  |
| CN(C)c1ccc(-c2nc(-c3n[nH]c(=S)[nH]3)cc3c2[nH]c2ccccc23)cc1 [1-(4-N,N-dimethylaminophenyl)-3-(5-thioxo-1,2,4-triazol-3-yl)-β-carboline] | 1.37 | 1.09 |  |  |  |  |  |  |  |  |  |  |  |
| O=C1OC(c2cc3c([nH]c4ccccc43)c(-c3ccccc3)n2)=NC1=Cc1cccc([N+](=O)[O-])c1 [Compound 8, 2-(1-Phenyl-9H-β-carbolin-3-yl)-4-(3-nitrobenzylidene)-4H-oxazol-5-one] |  |  | 62.4 | 7.52 | > 100 | > 100 | 63.2 | > 100 | > 100 |  |  |  |  |
| COc1ccc(-c2nc(C3=NC(=Cc4ccccc4)C(=O)O3)cc3c2[nH]c2ccccc23)cc1 [Compound 11, 2-[1-(4-Methoxyphenyl)-9H-β-carbolin-3-yl]-4-benzylidene-4H-oxazol-5-one] |  |  | 0.48 | 10 | 23.4 | 1.5 | 1.07 | 67.9 | 63.2 | 15.50 | 112.42 | 64.17 | 56.83 |
| CC(=O)Oc1ccc(-c2nc(C3=NC(=Cc4cccc([N+](=O)[O-])c4)C(=O)O3)cc3c2[nH]c2ccccc23)cc1 [Compound 9, 2-[1-(4-Acetoxyphenyl)-9H-β-carbolin-3-yl]-4-(3-nitrobenzylidene)-4H-oxazol-5-one] |  |  | 80.2 | 8.76 | > 100 | > 100 | > 100 | > 100 | > 100 |  |  |  |  |
